The test system of data set [1] is GAA knockout mice. As to the kind of experiment: Forelimb grip strength in GAA knockout mice (Pompe disease model). The format is in vivo. The following applies: change over the 8 week period, FIG. 1A. On the procedure: (§1) To determine if the ketogenic agent and enhanced ketogenic composition could improve autophagic activity, muscle function and mitochondrial capacity in mice having a lysosomal storage disease, mice lacking the acid alpha glucosidase (GAA) protein (an established mouse model of Pompe disease) were administered the ketogenic agent, the enhanced ketogenic composition or one of several control diets for a period of 8 weeks.
(§2) Breeding of GAA mice. Four GAA heterozygous breeding pairs (HET; GAA−/+; 6neo/6+) were obtained from Jackson Laboratories (Maine, USA) to generate homozygous GAA knock-outs (GAA; GAA−/−; 6neo/6neo). Mice were housed at McMaster University's Central Animal Facility in standard cages in 12-h light/dark cycles with ad libitum access to water and their respective diets. […]
(§3) Grip strength, motor coordination, and balance were evaluated prior to the introduction of the experimental diets. Motor coordination and balance were evaluated using a rotarod apparatus (Harvard Apparatus, MA), while forelimb grip strength was evaluated using a metal gripping bar attached to a DFIS-10 Chatillon digital force gage. Upon completion of the baseline testing, all groups were administered their respective experimental diets for a period of 8 weeks, when grip strength, motor coordination, and balance were re-evaluated as endpoint measures. […]

The test system of data set [2] is GAA knockout mice. The data set can be described thus: Rotarod performance (motor coordination and balance) in GAA knockout mice. The format is in vivo. To be noted: change over 8 weeks, FIG. 1B. On the procedure:
as §1, §2, §3
On the technique in general: Falling from the rotarod earlier than controls is read as motor impairment.

In data set [3] the test system is autophagic buildup in skeletal muscle of GAA knockout mice. The data set can be described thus: Autophagic buildup scored on electron micrographs of skeletal muscle. To be noted: skeletal muscle electron micrographs after 8 weeks; 0=no buildup to 3=severe, 7 micrographs; FIG. 2A. The data set is classed as in vivo. How it is done: (§4) Experimental groups All mice were fed standard rodent chow (chow diet; Harlan Teklad 8640 22/5), as a base diet with the exception of the group receiving a conventional […] diet (% kcal of SRT diet being 93.2% fat, 6.4% protein and 0.4% carbohydrates; Envigo, TD.07797). […]
(§5) Grip strength, motor coordination, and balance were evaluated prior to the introduction of the experimental diets. Motor coordination and balance were evaluated using a rotarod apparatus (Harvard Apparatus, MA), while forelimb grip strength was evaluated using a metal gripping bar attached to a DFIS-10 Chatillon digital force gage. Upon completion of the baseline testing, all groups were administered their respective experimental diets for a period of 8 weeks, when grip strength, motor coordination, and balance were re-evaluated as endpoint measures. […] The proteins p62, ubiquitin and mitochondrial complexes 1-5 were evaluated in quadriceps muscle using the following antibodies in 5% milk: p62 (Cell Signalling, Cat. #51145), ubiquitin (Enzo Life Sciences, Cat. #UG95100100) and Total OXPHOS Rodent WB Antibody Cocktail (Abcam, Cat. #ab110413). Autophagic buildup was determined using electron micrographs generated by the McMaster Electron Microscopy Facility. […]

In the next data set the test system is p62 protein. As to the kind of experiment: Western blotting for p62 in quadriceps muscle. To be noted: western blot, after 8 weeks, FIG. 2B. The format is in vivo, mice. On the procedure: as §4, §5
(In general: A western blot detects proteins with antibodies after separation by electrophoresis.)

Data set [4] relates to Complex IV enzyme activity. As to the kind of experiment: Complex IV (COX IV) enzymatic activity in quadriceps muscle. The data set is classed as in vivo, mice. The following applies: skeletal muscle, after 8 weeks.
Excerpt: as §4
To measure COX IV enzymatic activity, quadriceps muscle was homogenized in Lysing Matrix D tubes (MP Biomedicals, Solon, OH, USA) using the FastPrep-24 Tissue and Cell Homogenizer (MP Biomedicals, Solon, OH, USA) for 5×5-second cycles at a speed of 4.0 m/s with samples placed on ice for 5 minutes between cycles. […] The rate of oxidation of reduced cytochrome c was measured at 550 nm for 3 min at 37° C.

In data set [5] the test system is mitochondrial complexes 1-5. As to the kind of experiment: Western blotting for mitochondrial complexes 1-5 protein in quadriceps muscle. The data set is classed as in vivo, mice. To be noted: western blot, range over the five complexes, FIGS. 3B-F. How it is done: as §4, §5
For data set [6] the following is noted: Pompe disease, 2 weeks after the infusion; cited from earlier work.

With `CC(O)CCO` (stereo not shown) [ERT+1,3 BD, 1,3 butanediol], the “decline in forelimb grip strength” value in the data set on GAA knockout mice [1] is recorded as “relatively unchanged”. The “improvement in duration of time able to balance on the rotarod apparatus” value in the data set on GAA knockout mice [2] came out at 46%. Also, the “autophagic buildup score (per mouse total score out of 21)” value in data set [3] was 12/21. For the same molecule, the “p62 protein expression lower than GAA CON group” value in the data set on p62 protein is 59%. Moreover, in data set [4], the “ratio of mean complex IV enzyme activity to mean complex IV protein content, lower compared to WT CON” value is given as 41%. In addition, in data set [5], the “protein levels of mitochondrial complexes 1-5 higher compared to WT CON” value is 219-647%.

On to “ERT: Enzyme replacement therapy: bi-weekly intravenous injections of 40 mg/kg recombinant GAA enzyme (Myozyme; Genzyme)”, for which the “decline in forelimb grip strength” value with GAA knockout mice [1] is listed as 20%. Further, the “improvement in duration of time able to balance on the rotarod apparatus” value with GAA knockout mice [2] was “little or no change”. In addition, in data set [3], the “autophagic buildup score (per mouse total score out of 21)” value was 15/21. For the same molecule, in the data set on p62 protein, the “p62 protein expression lower than GAA CON group” value worked out at 23%. Besides, the “ratio of mean complex IV enzyme activity to mean complex IV protein content, lower compared to WT CON” value in data set [4] is 43%. In addition, in data set [5], the “protein levels of mitochondrial complexes 1-5 higher compared to WT CON” value is given as 103-250%.

As for “recombinant GAA protein: Infused recombinant acid alpha-glucosidase (GAA) protein used as enzyme replacement therapy in Pompe disease”, in data set [6], the “fraction of infused protein retained within skeletal muscle” value was 1-3%.

(Values after US12419852B2, “Method for treating lysosomal storage disease” (Exerkine Corporation, priority 2018, dated 2025).)
